Results as given in patent US20230218639A1, “USE OF OXYGENATED CHOLESTEROL SULFATES FOR TREATING NEUROLOGICAL CONDITIONS, NEURODEGENERATIVE DISEASES, AND ADDICTION” (Durect Corporation, priority 2020, published 2023).

Columns and labels:
[1] = test system: CpG sites in promoter regions of LINE-1 element, Huh-7 cells; assay: LINE-1 global methylation assay; assay type: cell-based, human; settings: Huh-7 cells in HG media, 25HC3S for 4 hours
Experimental: Each sample, 2 μg, was sent to […], Inc. (Hopkinton, Mass.) for analysis of global methylation bisulfite sequencing. The same samples, 6 μg, were sent to Novogene Co., Ltd (Tianjin, China) for analysis of whole genome bisulfite sequencing (WGBS). Total RNA was isolated using the Promega SV total RNA isolation system (Madison, Wis.) with DNase treatment. […] Real-time RT-PCR was performed using SYBR Green as the indicator on ABI 7500 Fast Real-Time PCR System (Applied Biosystems, Foster City, Calif.). Amplifications of β-actin or GAPDH were used as internal controls. Relative messenger RNA (mRNA) expression was quantified with the comparative cycle threshold (Ct) method using the primer set shown in Table 1.1 and was expressed as 2^-ΔΔCt. […] PCR reaction and product purification were performed as per the manufacturer's protocol (GE Healthcare Life Sciences). The PCR products, 10 μl, were sequenced by Pyrosequencing on the PSQ96 HS System following the manufacturer's instructions (Pyrosequencing, Qiagen). The methylation status of each CpG site was determined individually as an artificial C/T SNP using QCpG software (Pyrosequencing, Qiagen). The methylation level at each CpG site was calculated as the percentage of the methylated alleles divided by the sum of all methylated and unmethylated alleles. The mean methylation level was calculated using methylation levels of all measured CpG sites within the targeted region of each gene. Each experiment included non-CpG cytosines as internal controls to detect incomplete bisulfite conversion of the input DNA. In addition, a series of unmethylated and methylated DNA were included as controls in each PCR assay. Furthermore, PCR bias testing was performed by mixing unmethylated control DNA with in vitro methylated DNA at different ratios (0%, 5%, 10%, 25%, 50%, 75%, and 100%), followed by bisulfite modification, PCR, and Pyro-sequencing analysis.

[2] = rat, in vivo, po, 75 mg/kg
Experimental: Plasma concentrations were similar to those determined in the pharmacokinetics phase and were above the lower limit of quantitation.
Pancreas and liver concentrations ranged from 23,500 ng equiv./g to 28,100 ng equiv./g. Uveal tract and brain concentrations were lowest relative to the other tissues and were approximately 1000 ng equiv./g. Skin, thymus, prostate, and pituitary tissue concentrations were <3000 ng equiv./g. Remaining tissues had concentrations between 3600 ng-equiv./g and 10,700 ng equiv./g. […] As calculated using AUClast, the tissue:plasma ratios were highest for the small intestine (wall, 15.4) followed by the liver and adrenal gland at 6.96 and 6.64, respectively. High liver and small intestine concentrations are consistent with oral administration and biliary (fecal) excretion.

[3] = design: species or system rats; settings: rat, in vivo, po, 75 mg/kg
Experimental: The terminal elimination phase T1/2 was 27.3 hours.

**Q.** Which “Reduction of methylation (demethylation) at Pos1 of LINE-1” value [1] does the source give for `C[C@H](CCCC(C)(C)O)[C@H]1CC[C@H]2[C@@H]3CC=C4C[C@@H](OS(=O)(=O)O)CC[C@]4(C)[C@H]3CC[C@]12C` [25HC3S, 5-Cholesten-3β, 25-diol 3-sulfate] here?
**A.** The value was −5%.

**Q.** What about the “Reduction of methylation (demethylation) at Pos3 of LINE-1” value [1] of the same molecule?
**A.** Its value is −10%.

**Q.** And the “Reduction of methylation (demethylation) at Pos 4 of LINE-1” value [1]?
**A.** Its value is −5.6%.

**Q.** What about the “Cmax in small intestine (wall)” value [2] of the same molecule?
**A.** Its value is 424,000 ng equiv./g.

**Q.** And the “Cmax in stomach (wall)” value [2]?
**A.** The value was 204,000 ng equiv./g.

**Q.** And the “tissue Tmax” value [2]?
**A.** Its value is ≤ 6 hours post-dose.

**Q.** What about the “tissues in which radioactivity was detected” value [2] of the same molecule?
**A.** Its value is “all tissues except the eye (lens)”.

**Q.** And the “whole blood AUClast” value [2]?
**A.** Its value is 127,000 h ng equiv./g.

**Q.** And the “whole blood Cmax” value [2]?
**A.** The value was 2850 ng equiv/g.

**Q.** What about the “terminal elimination phase T1/2” value ([3]; Sprague Dawley) of the same molecule?
**A.** Its value is 27.3 h.

**Q.** And the “plasma AUClast” value [3]?
**A.** Its value is 96,400 h·ng equiv./g.

**Q.** And the “plasma Cmax” value [3]?
**A.** Its value is 3800 ng equiv./g.
